# Laboratory results: US8802597B2, “Herbicidal pyrimidines” (E I du Pont de Nemours and Company, priority 2003, dated 2014)
# Where two headings read alike, the source gives them in different places.
# How the values were obtained:
# Assay in all cases: Test C pre/postemergence
# Assay type in all cases: in vivo
# [1] = system: velvetleaf (Abutilon theophrasti); settings: Abutilon theophrasti; for pest or weed control at 31 g/ha: 31 g ai/ha; for pest or weed control at 62 g/ha: 62 g ai/ha; for pest or weed control at 125 g/ha: 125 g ai/ha; for pest or weed control at 250 g/ha: 250 g ai/ha
# Procedure, shortened: (§1)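 Rating scale 0–100: 0 means no effect, 100 complete control; taken visually 12 to 14 days post-treatment versus controls. Pre- and postemergence greenhouse applications, postemergence at 1- to 4-leaf stage, non-phytotoxic solvent with surfactant as carrier.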
# [2] = system: goosegrass (Eleusine indica); settings: Eleusine indica; for pest or weed control at 31 g/ha: 31 g ai/ha; for pest or weed control at 62 g/ha: 62 g ai/ha; for pest or weed control at 125 g/ha: 125 g ai/ha; for pest or weed control at 250 g/ha: 250 g ai/ha
# Procedure, shortened: as §1
# [3] = system: cocklebur (Xanthium strumarium); settings: Xanthium strumarium; for pest or weed control at 31 g/ha: 31 g ai/ha; for pest or weed control at 125 g/ha: 125 g ai/ha; for pest or weed control at 250 g/ha: 250 g ai/ha
# Procedure, shortened: as §1
# [4] = system: lambsquarters (Chenopodium album); settings: Chenopodium album; for pest or weed control at 31 g/ha: 31 g ai/ha; for pest or weed control at 62 g/ha: 62 g ai/ha; for pest or weed control at 125 g/ha: 125 g ai/ha; for pest or weed control at 250 g/ha: 250 g ai/ha
# Procedure, shortened: as §1
# [5] = system: eastern black nightshade (Solanum ptycanthum); settings: Solanum, pre-emergence, Preemergence, read-out: Plant response rating, Nightshade
# Procedure, shortened: as §1
# corn (Zea mays) = settings: Zea mays; for Corn plant response rating (crop injury, 0 = no effect, 100 = complete kill) at 31 g/ha: 31 g ai/ha; for Corn plant response rating (crop injury, 0 = no effect, 100 = complete kill) at 62 g/ha: 62 g ai/ha; for Corn plant response rating (crop injury, 0 = no effect, 100 = complete kill) at 250 g/ha: 250 g ai/ha, scale 0 to 100
# Procedure, shortened: as §1
# [6] = system: crabgrass (Digitaria sanguinalis); settings: Digitaria sanguinalis; for pest or weed control at 31 g/ha: 31 g ai/ha; for pest or weed control at 62 g/ha: 62 g ai/ha; for pest or weed control at 125 g/ha: 125 g ai/ha; for pest or weed control at 250 g/ha: 250 g ai/ha
# Procedure, shortened: as §1
# [7] = system: bermudagrass (Cynodon dactylon); settings: Cynodon dactylon; for pest or weed control at 31 g/ha: 31 g ai/ha; for pest or weed control at 62 g/ha: 62 g ai/ha; for pest or weed control at 125 g/ha: 125 g ai/ha; for pest or weed control at 125 g/ha / pest or weed control at 250 g/ha: scale 0 to 100; for pest or weed control at 250 g/ha: 250 g ai/ha
# Procedure, shortened: as §1
# [8] = post-emergence, Postemergence, scale 0 to 100 (0 no effect, 100 complete control), read-out: Velvetleaf plant response rating
# [9] = pre-emergence, Preemergence, scale 0 to 100, 0 no effect, 100 complete control, read-out: Plant response rating, Velvetleaf
# [10] = pre-emergence, Preemergence, scale 0 to 100, read-out: Plant response rating, Velvetleaf
# [11] = post-emergence, Postemergence, scale 0 to 100 (0 no effect, 100 complete control), read-out: Goosegrass plant response rating
# [12] = pre-emergence, Preemergence, scale 0 to 100, 0 no effect, 100 complete control, read-out: Plant response rating, Goosegrass
# [13] = pre-emergence, Preemergence, scale 0 to 100, read-out: Plant response rating, Goosegrass
# [14] = pre-emergence, Preemergence, scale 0 to 100, read-out: Plant response rating, Cocklebur
# [15] = post-emergence, Postemergence, scale 0 to 100 (0 no effect, 100 complete control), read-out: Lambsquarters plant response rating
# [16] = pre-emergence, Preemergence, scale 0 to 100, 0 no effect, 100 complete control, read-out: Plant response rating, Lambsquarters
# [17] = pre-emergence, Preemergence, scale 0 to 100, read-out: Plant response rating, Lambsquarters
# [18] = pre-emergence, Preemergence, scale 0 to 100, 0 no effect, 100 complete control, read-out: Plant response rating, Corn
# [19] = post-emergence, Postemergence, scale 0 to 100 (0 no effect, 100 complete control), read-out: Crabgrass plant response rating
# [20] = pre-emergence, Preemergence, scale 0 to 100, 0 no effect, 100 complete control, read-out: Plant response rating, Crabgrass
# [21] = pre-emergence, Preemergence, scale 0 to 100, read-out: Plant response rating, Crabgrass
# [22] = post-emergence, Postemergence, read-out: Plant response rating, Bermudagrass
# [23] = pre-emergence, Preemergence, scale 0 to 100, 0 no effect, 100 complete control, read-out: Plant response rating, Bermudagrass
# [24] = pre-emergence, Preemergence, read-out: Plant response rating, Bermudagrass
compound,measurement,setting,value
"COC(=O)c1nc(C2CC2)nc(N)c1Br [Compound 2, methyl 6-amino-5-bromo-2-cyclopropyl-4-pyrimidinecarboxylate]",pest or weed control at 31 g/ha,"[1]; post-emergence, Postemergence, read-out: Plant response rating (scale of 0 to 100), Velvetleaf",65%
same,pest or weed control at 62 g/ha,[1]; [8],70%
same,pest or weed control at 125 g/ha,[1]; [8],80%
same,pest or weed control at 250 g/ha,"[1]; post-emergence, Postemergence, scale 0 to 100, read-out: Plant response rating, Velvetleaf",100%
same,pest or weed control at 31 g/ha,[1]; [9],20%
same,pest or weed control at 62 g/ha,[1]; [9],50%
same,pest or weed control at 125 g/ha,[1]; [10],75%
same,pest or weed control at 250 g/ha,[1]; [10],90%
same,pest or weed control at 31 g/ha,"[2]; post-emergence, Postemergence, read-out: Plant response rating (scale of 0 to 100), Goosegrass",0%
same,pest or weed control at 62 g/ha,[2]; [11],0%
same,pest or weed control at 125 g/ha,[2]; [11],0%
same,pest or weed control at 250 g/ha,"[2]; post-emergence, Postemergence, scale 0 to 100, read-out: Plant response rating, Goosegrass",45%
same,pest or weed control at 31 g/ha,[2]; [12],0%
same,pest or weed control at 62 g/ha,[2]; [12],0%
same,pest or weed control at 125 g/ha,[2]; [13],0%
same,pest or weed control at 250 g/ha,[2]; [13],60%
same,pest or weed control at 31 g/ha,"[3]; post-emergence, Postemergence, read-out: Plant response rating (scale of 0 to 100), Cocklebur",65%
same,pest or weed control at 62 g/ha,"[3]; post-emergence, Postemergence, 62 g ai/ha, scale 0 to 100 (0 no effect, 100 complete control), read-out: Cocklebur plant response rating",75%
same,pest or weed control at 125 g/ha,"[3]; post-emergence, Postemergence, scale 0 to 100 (0 no effect, 100 complete control), read-out: Cocklebur plant response rating",85%
same,pest or weed control at 250 g/ha,"[3]; post-emergence, Postemergence, scale 0 to 100, read-out: Plant response rating, Cocklebur",85%
same,pest or weed control at 31 g/ha,"[3]; pre-emergence, Preemergence, scale 0 to 100, 0 no effect, 100 complete control, read-out: Plant response rating, Cocklebur",60%
same,pest or weed control at 125 g/ha,[3]; [14],80%
same,pest or weed control at 250 g/ha,[3]; [14],100%
same,pest or weed control at 31 g/ha,"[4]; post-emergence, Postemergence, read-out: Plant response rating (scale of 0 to 100), Lambsquarters",100%
same,pest or weed control at 62 g/ha,[4]; [15],100%
same,pest or weed control at 125 g/ha,[4]; [15],100%
same,pest or weed control at 250 g/ha,"[4]; post-emergence, Postemergence, scale 0 to 100, read-out: Plant response rating, Lambsquarters",100%
same,pest or weed control at 31 g/ha,[4]; [16],90%
same,pest or weed control at 62 g/ha,[4]; [16],100%
same,pest or weed control at 125 g/ha,[4]; [17],100%
same,pest or weed control at 250 g/ha,[4]; [17],100%
same,pest or weed control at 31 g/ha,"[5]; 31 g ai/ha, scale 0 to 100, 0 no effect, 100 complete control",0%
same,pest or weed control at 62 g/ha,"[5]; 62 g ai/ha, scale 0 to 100, 0 no effect, 100 complete control",20%
same,pest or weed control at 125 g/ha,"[5]; 125 g ai/ha, scale 0 to 100",100%
same,pest or weed control at 250 g/ha,"[5]; 250 g ai/ha, scale 0 to 100",100%
same,"Corn plant response rating (crop injury, 0 = no effect, 100 = complete kill) at 31 g/ha","corn (Zea mays); post-emergence, Postemergence, read-out: Plant response rating (scale of 0 to 100), Corn",15%
same,"Corn plant response rating (crop injury, 0 = no effect, 100 = complete kill) at 62 g/ha","corn (Zea mays); post-emergence, Postemergence, scale 0 to 100 (0 no effect, 100 complete control), read-out: Corn plant response rating",15%
same,"Corn plant response rating (crop injury, 0 = no effect, 100 = complete kill) at 125 g/ha","corn (Zea mays); post-emergence, Postemergence, 125 g ai/ha, scale 0 to 100 (0 no effect, 100 complete control), read-out: Corn plant response rating",20%
same,"Corn plant response rating (crop injury, 0 = no effect, 100 = complete kill) at 250 g/ha","corn (Zea mays); post-emergence, Postemergence",30%
same,"Corn plant response rating (crop injury, 0 = no effect, 100 = complete kill) at 31 g/ha",corn (Zea mays); [18],0%
same,"Corn plant response rating (crop injury, 0 = no effect, 100 = complete kill) at 62 g/ha",corn (Zea mays); [18],0%
same,"Corn plant response rating (crop injury, 0 = no effect, 100 = complete kill) at 250 g/ha","corn (Zea mays); pre-emergence, Preemergence",0%
same,pest or weed control at 31 g/ha,"[6]; post-emergence, Postemergence, read-out: Plant response rating (scale of 0 to 100), Crabgrass",40%
same,pest or weed control at 62 g/ha,[6]; [19],55%
same,pest or weed control at 125 g/ha,[6]; [19],60%
same,pest or weed control at 250 g/ha,"[6]; post-emergence, Postemergence, scale 0 to 100, read-out: Plant response rating, Crabgrass",70%
same,pest or weed control at 31 g/ha,[6]; [20],0%
same,pest or weed control at 62 g/ha,[6]; [20],0%
same,pest or weed control at 125 g/ha,[6]; [21],0%
same,pest or weed control at 250 g/ha,[6]; [21],50%
same,pest or weed control at 31 g/ha,"[7]; post-emergence, Postemergence, read-out: Plant response rating (scale of 0 to 100), Bermudagrass",15%
same,pest or weed control at 62 g/ha,"[7]; post-emergence, Postemergence, scale 0 to 100 (0 no effect, 100 complete control), read-out: Bermudagrass plant response rating",60%
same,pest or weed control at 125 g/ha,[7]; [22],70%
same,pest or weed control at 250 g/ha,[7]; [22],80%
same,pest or weed control at 31 g/ha,[7]; [23],0%
same,pest or weed control at 62 g/ha,[7]; [23],0%
same,pest or weed control at 125 g/ha,[7]; [24],0%
same,pest or weed control at 250 g/ha,[7]; [24],0%
